# Read-outs that look alike come from different tables or passages of the source.
# Legend:
# Pim3 kinase = Pim3 kinase (Homo sapiens, UniProt Q86V86); assay: Pim3 ATP depletion assay; format: biochemical
# [1] = test system: KMS 11 (human myeloma cell line); assay: Cell proliferation assay (CellTiter-Glo), KMS 11; format: cell-based; conditions: KMS11 cells
# Description: (§1) KMS 11 (human myeloma cell line), were cultured in IMDM supplemented with 10% FBS, sodium pyruvate and antibiotics. Cells were plated in the same medium at a density of 2000 cells per well into 96 well tissue culture plates, with outside wells vacant, on the day of assay. MM1.s (human myeloma cell line), were cultured in RPMI1640 supplemented with 10% FBS, sodium pyruvate and antibiotics. Cells were plated in the same medium at a density of 5000 cells per well into 96 well tissue culture plates, with outside wells vacant, on the day of assay.
# (§2) Test compounds supplied in DMSO were diluted into DMSO at 500 times the desired final concentrations before dilution into culture media to 2 times final concentrations. Equal volumes of 2× compounds were added to the cells in 96 well plates and incubated at 37° C. for 3 days.
# (§3) After 3 days plates were equilibrated to room temperature and equal volume of CellTiter-Glow Reagent (Promega) was added to the culture wells. The plates were agitated briefly and luminescent signal was measured with luminometer. The percent inhibition of the signal seen in cells treated with DMSO alone vs. cells treated with control compound was calculated and used to determine EC50 values (i.e., the concentration of a test compound that is required to obtain 50% of the maximum effect in the cells) for tested compounds, as shown in Example 763.
# Pim2 kinase = Pim2 kinase (Homo sapiens, UniProt Q9P1W9); assay: Pim2 ATP depletion assay; format: biochemical;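 also: Luciferase-based luminescent readout of ATP remaining after PIM2 phosphorylates a BAD peptide, final 5 nM enzyme, 4 µM ATP, 10 µM peptide, 2.5% DMSO, run to roughly half ATP consumption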
# [2] = test system: MM1.s (human myeloma cell line); assay: Cell proliferation assay (CellTiter-Glo), MM1.s; format: cell-based; conditions: MM1.s cells
# Description: as §1, §2, §3
# Pim1 kinase = Pim1 kinase (Homo sapiens, UniProt P11309); assay: Pim1 ATP depletion assay; format: biochemical; conditions: Pim1 ATP depletion assay;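 also: Luciferase-luciferin luminescence readout of residual ATP after PIM1 transfers phosphate to a peptide substrate, 40 µM ATP added, reaction run to roughly half ATP consumption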
# PC3 cells = assay: Cell proliferation assay (CellTiter-Glo), PC3; format: cell-based; conditions: Homo sapiens, PC-3
# Description: HEL 92.1.7 cells (ATTC No. TIB-180, an erythroleukemia line derived from malignant peripheral blood), MV4-11 cells (ATCC No. CRL-9591, a human acute monocytic leukemia line) and PC3 cells (ATCC No. CRL-1435, a human prostatic adenocarcinoma line) were cultured in RPMI1640 supplemented with 10% FBS, sodium pyruvate and antibiotics. Cells were plated in the same medium at a density of 1000 cells per well into 96 well tissue culture plates, with outside wells vacant, on the day of assay.
# as §2, §3
# KDR kinase = KDR kinase (Homo sapiens, UniProt P35968); assay: KDR AlphaScreen assay; conditions: KDR IC50 (μM)
# [3] = target: T1, human full length PKCE enzyme (Homo sapiens, UniProt Q02156); assay: In vitro PKCE assay; format: biochemical; conditions: 10 nM enzyme, 40 uM peptide substrate, 20 uM ATP, KinaseGlo Plus readout; read-out: PKCε IC50
# T1 construct: human full length PKCE enzyme purchased from InVitrogen; purchased InVitrogen
# T1 sequence (Q02156 1-737): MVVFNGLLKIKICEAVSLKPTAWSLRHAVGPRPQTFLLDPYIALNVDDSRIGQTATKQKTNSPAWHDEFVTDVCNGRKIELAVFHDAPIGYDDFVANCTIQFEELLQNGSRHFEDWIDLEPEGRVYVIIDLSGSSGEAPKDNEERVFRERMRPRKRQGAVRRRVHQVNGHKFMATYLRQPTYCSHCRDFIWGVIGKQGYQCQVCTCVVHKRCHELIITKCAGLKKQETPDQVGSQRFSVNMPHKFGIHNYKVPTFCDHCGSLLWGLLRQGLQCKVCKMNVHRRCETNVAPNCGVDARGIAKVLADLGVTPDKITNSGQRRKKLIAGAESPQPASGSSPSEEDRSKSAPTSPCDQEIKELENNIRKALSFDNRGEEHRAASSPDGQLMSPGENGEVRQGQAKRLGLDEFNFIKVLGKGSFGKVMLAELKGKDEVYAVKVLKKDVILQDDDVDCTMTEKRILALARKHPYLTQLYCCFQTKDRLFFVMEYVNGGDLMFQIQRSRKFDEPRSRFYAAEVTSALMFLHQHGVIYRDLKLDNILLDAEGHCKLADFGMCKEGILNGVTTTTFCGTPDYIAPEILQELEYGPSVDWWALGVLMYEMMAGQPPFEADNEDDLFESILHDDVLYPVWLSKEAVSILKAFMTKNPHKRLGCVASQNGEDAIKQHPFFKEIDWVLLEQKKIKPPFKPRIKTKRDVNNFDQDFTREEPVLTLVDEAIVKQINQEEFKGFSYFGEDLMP
# HEL 92.1.7 cells = assay: Cell proliferation assay (CellTiter-Glo), HEL 92.1.7; format: cell-based; conditions: Homo sapiens, read-out: EC50 (μM) HEL 92.1.7
# Procedure, shortened: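 CellTiter-Glo luminescence was read after 3-day compound exposure at 37 °C of cells plated at 1000/well in RPMI1640 with 10% FBS. Signal was normalised between DMSO-treated and control-compound-treated wells. EC50 is the concentration giving 50% of maximal effect.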
# KDR kinase, sequence (P35968 20-1356): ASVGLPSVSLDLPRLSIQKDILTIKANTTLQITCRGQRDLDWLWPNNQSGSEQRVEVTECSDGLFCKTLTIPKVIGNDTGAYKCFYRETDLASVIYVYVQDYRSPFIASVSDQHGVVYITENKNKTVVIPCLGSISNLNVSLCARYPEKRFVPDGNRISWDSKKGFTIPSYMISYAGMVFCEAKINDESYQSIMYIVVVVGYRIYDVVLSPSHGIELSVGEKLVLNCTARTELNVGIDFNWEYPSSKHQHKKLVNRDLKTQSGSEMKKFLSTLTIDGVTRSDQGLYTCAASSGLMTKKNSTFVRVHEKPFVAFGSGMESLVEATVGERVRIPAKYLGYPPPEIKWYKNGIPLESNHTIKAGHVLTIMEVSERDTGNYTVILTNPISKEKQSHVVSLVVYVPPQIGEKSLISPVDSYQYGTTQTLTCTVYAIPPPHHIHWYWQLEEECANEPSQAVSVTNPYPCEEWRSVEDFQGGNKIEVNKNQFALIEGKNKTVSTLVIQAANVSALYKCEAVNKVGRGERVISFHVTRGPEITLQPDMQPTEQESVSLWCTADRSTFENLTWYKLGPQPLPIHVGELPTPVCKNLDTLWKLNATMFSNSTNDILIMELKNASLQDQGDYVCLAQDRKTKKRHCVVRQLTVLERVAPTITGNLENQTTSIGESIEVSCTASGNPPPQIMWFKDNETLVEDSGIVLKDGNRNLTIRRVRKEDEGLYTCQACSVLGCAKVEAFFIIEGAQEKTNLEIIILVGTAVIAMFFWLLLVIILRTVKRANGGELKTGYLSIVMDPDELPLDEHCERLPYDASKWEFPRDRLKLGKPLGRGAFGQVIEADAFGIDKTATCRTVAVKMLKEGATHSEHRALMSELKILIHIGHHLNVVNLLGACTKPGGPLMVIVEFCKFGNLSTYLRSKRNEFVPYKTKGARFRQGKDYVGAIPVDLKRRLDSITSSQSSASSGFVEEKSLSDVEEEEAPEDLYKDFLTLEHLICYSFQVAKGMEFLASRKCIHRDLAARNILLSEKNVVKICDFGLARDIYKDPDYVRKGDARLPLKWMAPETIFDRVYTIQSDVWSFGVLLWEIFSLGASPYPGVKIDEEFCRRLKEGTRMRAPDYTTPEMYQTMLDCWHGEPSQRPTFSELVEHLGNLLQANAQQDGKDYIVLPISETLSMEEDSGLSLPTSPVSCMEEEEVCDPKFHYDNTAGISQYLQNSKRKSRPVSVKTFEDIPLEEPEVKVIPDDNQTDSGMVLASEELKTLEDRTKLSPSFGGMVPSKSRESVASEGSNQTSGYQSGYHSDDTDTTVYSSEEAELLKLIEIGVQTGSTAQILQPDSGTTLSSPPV
# Pim2 kinase, sequence (Q9P1W9 whole entry): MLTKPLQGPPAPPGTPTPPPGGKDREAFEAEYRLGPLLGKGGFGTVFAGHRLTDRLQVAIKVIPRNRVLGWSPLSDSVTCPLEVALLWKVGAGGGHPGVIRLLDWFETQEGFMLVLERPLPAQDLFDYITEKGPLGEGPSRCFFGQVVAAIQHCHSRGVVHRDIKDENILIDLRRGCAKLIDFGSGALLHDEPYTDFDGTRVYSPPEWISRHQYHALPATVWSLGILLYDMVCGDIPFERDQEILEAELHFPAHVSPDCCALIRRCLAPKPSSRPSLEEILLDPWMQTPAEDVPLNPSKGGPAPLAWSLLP
# Pim1 kinase, sequence (P11309 whole entry): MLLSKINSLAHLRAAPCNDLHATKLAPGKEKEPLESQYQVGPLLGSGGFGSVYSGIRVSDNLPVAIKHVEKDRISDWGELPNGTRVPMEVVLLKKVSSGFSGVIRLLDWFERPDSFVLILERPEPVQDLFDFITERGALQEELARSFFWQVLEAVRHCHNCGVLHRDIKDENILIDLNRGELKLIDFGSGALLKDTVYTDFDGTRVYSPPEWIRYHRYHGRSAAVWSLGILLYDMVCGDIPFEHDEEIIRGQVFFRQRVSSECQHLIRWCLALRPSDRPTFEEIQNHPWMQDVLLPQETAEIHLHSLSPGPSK
SMILES,IC50 (Pim3 kinase; read-out: PIM3 IC50),EC50 ([1]; read-out: KMS11 EC50),IC50 (Pim2 kinase; read-out: PIM2 IC50),EC50 ([2]; read-out: MM1.s EC50),IC50 (Pim1 kinase; read-out: PIM1 IC50),IC50 (Pim3 kinase; read-out: IC50 (μM) PIM3),EC50 (PC3 cells),IC50 (KDR kinase),IC50 (Pim2 kinase; read-out: IC50 (μM) PIM2),IC50 [3],IC50 (Pim1 kinase; read-out: IC50 (μM) PIM1),EC50 ([1]; read-out: EC50 (μM) KMS11),EC50 ([2]; read-out: EC50 (μM) MM1.s),EC50 (HEL 92.1.7 cells)
"CCOc1ccc(Cl)c(-c2ccc(N)c(C(=O)Nc3cnccc3N3CCC[C@H](N)C3)n2)c1 [Example 322, 3-amino-6-(2-chloro-5-ethoxy-phenyl)-pyridine-2-carboxylic acid ((S)-3-amino-3,4,5,6-tetrahydro-2H-[1,4′]bi-pyridinyl-3′-yl)-amide]",,,,,,< 1 µM,5 to 10 µM,> 25 µM,< 1 µM,1000 to 10000 nM,< 1 µM,,,< 1 µM
Nc1nccnc1C(=O)Nc1cnccc1N1CCC[C@H](N)C1 [Example 176],,,,,,< 1 µM,1 to 5 µM,1 to 10 µM,< 1 µM,< 1000 nM,,,,1 to 5 µM
"Nc1nccnc1C(=O)Nc1ccncc1N1CCCC(N)C1 (stereo not shown) [Example 173, 3-amino-N-[3-(3-aminopiperidin-1-yl)pyridin-4-yl]pyrazine-2-carboxamide]",,,,,,< 1 µM,5 to 10 µM,10 to 25 µM,< 1 µM,< 1000 nM,< 1 µM,,,1 to 5 µM
"N#Cc1ccccc1-c1cnc(N)c(C(=O)Nc2cnccc2N2CCCC(N)C2)n1 (stereo not shown) [Example 345, 3-amino-6-(2-cyano-phenyl)-pyrazine-2-carboxylic acid (3-amino-3,4,5,6-tetrahydro-2H-[1,4′]bipyridinyl-3′-yl)-amide]",,,,,,< 1 µM,< 1 µM,< 1 µM,< 1 µM,< 1000 nM,< 1 µM,,,< 1 µM
"Nc1nccnc1C(=O)Nc1ccccc1N1CCC(N)CC1 [Example 203, 3-amino-N-[2-(4-aminopiperidin-1-yl)phenyl]pyrazine-2-carboxamide]",,,,,,< 1 µM,< 1 µM,> 25 µM,1 to 10 µM,< 1000 nM,< 1 µM,,,
"Nc1ccc(-c2cc(C(=O)Nc3ccccc3)ccc2F)nc1C(=O)Nc1cnccc1N1CCC[C@H](N)C1 [Example 323, 3-amino-6-(2-fluoro-5-phenylcarbamoyl-phenyl)-pyridine-2-carboxylic acid ((S)-3-amino-3,4,5,6-tetra-hydro-2H-[1,4′]bipyridinyl-3′-yl)-amide]",,,,,,< 1 µM,1 to 5 µM,,< 1 µM,,< 1 µM,,,< 1 µM
"Nc1nccnc1C(=O)Nc1ccccc1N1CCNCC1 [Example 202, 3-amino-N-(2-piperazin-1-ylphenyl)pyrazine-2-carbox-amide]",,,,,,1 to 10 µM,1 to 5 µM,> 25 µM,> 25 µM,< 1000 nM,1 to 10 µM,,,
"Cc1ccc(NC(=O)c2nccnc2N)c(N2CCC(N)CC2)c1 [Example 228, 3-amino-N-[2-(4-aminopiperidin-1-yl)-4-methylphenyl]pyrazine-2-carboxamide]",,,,,,< 1 µM,5 to 10 µM,10 to 25 µM,10 to 25 µM,< 1000 nM,< 1 µM,,,

# Further lines, with some results ahead:
IC50 (Pim3 kinase; read-out: PIM3 IC50),EC50 ([1]; read-out: KMS11 EC50),IC50 (Pim2 kinase; read-out: PIM2 IC50),EC50 ([2]; read-out: MM1.s EC50),IC50 (Pim1 kinase; read-out: PIM1 IC50),IC50 (Pim3 kinase; read-out: IC50 (μM) PIM3),EC50 (PC3 cells),IC50 (KDR kinase),IC50 (Pim2 kinase; read-out: IC50 (μM) PIM2),IC50 [3],IC50 (Pim1 kinase; read-out: IC50 (μM) PIM1),EC50 ([1]; read-out: EC50 (μM) KMS11),EC50 ([2]; read-out: EC50 (μM) MM1.s),SMILES,EC50 (HEL 92.1.7 cells)
< 1 µM,< 1 µM,< 1 µM,1 to 5 µM,< 1 µM,,,,,,,,,"CC(C)NC(=O)c1ccc(F)c(-c2nc(C(=O)Nc3cnccc3N3CCC[C@H](N)C3)c(N)cc2F)c1F [Example 736, 3-Amino-6-(2,6-difluoro-3-isopropylcarbamoyl-phenyl)-5-fluoro-pyridine-2-carboxylic acid (3-amino-3,4,5,6-tetra-hydro-2H-[1,4′]bipyridinyl-3′-yl)-amide]",
,,,,,< 1 µM,,,< 1 µM,,< 1 µM,< 1 µM,< 1 µM,"Nc1cc(F)c(-c2c(F)cccc2F)nc1C(=O)Nc1cnccc1N1CCC[C@H](N)C1 [Example 516, 3-Amino-6-(2,6-difluoro-phenyl)-5-fluoro-pyridine-2-carboxylic acid (3-amino-3,4,5,6-tetrahydro-2H-[1,4′]bipyridinyl-3′-yl)-amide]",
,,,,,< 1 µM,> 10 µM,,< 1 µM,,< 1 µM,,,"COc1ccncc1-c1ccc(N)c(C(=O)Nc2cnccc2N2CCC[C@H](N)C2)n1 [Example 421, 5-amino-4′-methoxy-[2,3′]bi-pyridinyl-6-carboxylic acid ((S)-3-amino-3,4,5,6-tetrahydro-2H-[1,4′]bipyridinyl-3′-yl)-amide]",1 to 5 µM
,,,,,< 1 µM,1 to 5 µM,,,< 1000 nM,< 1 µM,,,"Nc1ncc(-c2ccccc2C(F)(F)F)nc1C(=O)Nc1cnccc1N1CCCC(N)C1 (stereo not shown) [Example 348, 3-amino-6-(2-trifluoromethyl-phenyl)-pyrazine-2-carboxylic acid (3-amino-3,4,5,6-tetra-hydro-2H-[1,4′]bipyridinyl-3′-yl)-amide]",< 1 µM
,,,,,< 1 µM,5 to 10 µM,> 25 µM,< 1 µM,1000 to 10000 nM,< 1 µM,,,"Nc1ccc(-c2cccc(F)c2F)nc1C(=O)Nc1cnccc1N1CCC[C@H](N)C1 [Example 424, 3-amino-6-(2,3-difluoro-phenyl)-pyridine-2-carboxylic acid ((S)-3-amino-3,4,5,6-tetrahydro-2H-[1,4′]bipyridinyl-3′-yl)-amide]",1 to 5 µM
,,,,,< 1 µM,,,,,< 1 µM,1 to 5 µM,1 to 5 µM,N[C@H]1CCCN(c2ccncc2NC(=O)c2ccc(F)c(-c3c(F)cccc3F)n2)C1 [Example 445],
,,,,,< 1 µM,> 10 µM,> 25 µM,< 1 µM,10000 to 25000 nM,< 1 µM,,,"Nc1ccc(-c2ccncc2Cl)nc1C(=O)Nc1cnccc1N1CCC[C@H](N)C1 [Example 422, 5-amino-3′-chloro-[2,4′]bi-pyridinyl-6-carboxylic acid ((S)-3-amino-3,4,5,6-tetrahydro-2H-[1,4′]bipyridinyl-3′-yl)-amide]",1 to 5 µM
,,,,,< 1 µM,< 1 µM,< 1 µM,< 1 µM,< 1000 nM,< 1 µM,,,"Nc1ncc(-c2ccccc2)nc1C(=O)Nc1cnccc1N1CCNCC1 [Example 359, 3-amino-6-phenyl-pyrazine-2-carboxylic acid (4-piperazin-1-yl-pyridin-3-yl)-amide]",
,,,,,< 1 µM,< 1 µM,< 1 µM,< 1 µM,< 1000 nM,< 1 µM,,,"COc1ccc(-c2cnc(N)c(C(=O)Nc3cnccc3N3CCNCC3)n2)cc1 [Example 362, 3-amino-6-(4-methoxy-phenyl)-pyrazine-2-carboxylic acid (4-piperazin-1-yl-pyridin-3-yl)-amide]",
